Data on 33 compounds can be found in the supplement of paper PMC6965134.

± gives the standard deviation of the averaged measurements.

The data set can be described thus: TIMS collisional cross section (CCS, N2) of the lipid ion; higher = larger ion cross section. The settings on record: ionization mode: positive, one isomer drawn.

Take `CCCCCCCC/C=C\CCCCCCCC(=O)O[C@@H](COC(=O)CCCCCCC/C=C\CCCCCCCCC)COC(=O)CCCCCCCCCCCCCCC` [TG 16:0_18:1_19:1] (ion (formula + adduct): [C56H104O6+NH4] 1+): where the note is “sample type: HeLa”, the “TIMS collisional cross section” value is 325.5 Å².

As for `CC/C=C\C/C=C\C/C=C\C/C=C\C/C=C\C/C=C\CCC(=O)OC[C@@H](COC(=O)CCCCCCCCCCCCCCC)OC(=O)CCCCCCCCCCCCCCCCCCC` [TG 16:0_20:0_22:6] (ion (formula + adduct): [C61H106O6+NH4] 1+), the “TIMS collisional cross section” value (sample type: Liver) is given as 335.3 Å².

Consider `CCCCCCCCCCCCCC(=O)OC[C@@H](COC(=O)CCCCCCCCCCC)OC(=O)CCCCCCCCCCCCC` [TG 12:0_14:0_14:0] (ion (formula + adduct): [C43H82O6+NH4] 1+), for which the “TIMS collisional cross section” value reads like this: (sample type: HeLa) 289 Å²; (sample type: Liver) 289.1 Å²; (sample type: plasma) 289.1 Å². Turning to `CCCCCCCC/C=C\CCCCCCCCCCCC(=O)OC[C@@H](COC(=O)CCCCCCCCCCCCCCCCC)OC(=O)CCCCCCCCCCCCCCCCCCCCC` [TG 18:0_22:0_22:1] (ion (formula + adduct): [C65H124O6+NH4] 1+), the “TIMS collisional cross section” value (sample type: plasma) is on record as 352.8 Å². On to `CCCCC/C=C\C/C=C\C/C=C\C/C=C\CCCCCC(=O)OC[C@H](COP(=O)(O)OCCN)OC(=O)CCCCCCCCCCCCCCCCC` [PE 22:4_18:0] (ion (formula + adduct): [C45H82NO8P+H] 1+), for which the “TIMS collisional cross section” value (sample type: Liver) was 289.7 Å².

In the case of `CCCCC/C=C\CCCCCCCC(=O)O[C@H](COC(=O)CCCCCCCCCCCCCC)COC(=O)CCCCCCCCCCCCCCC` [TG 15:0_15:1_16:0] (ion (formula + adduct): [C49H92O6+NH4] 1+), where the note is “sample type: Liver”, the “TIMS collisional cross section” value came to 305.9 Å².

Take `CC/C=C\C/C=C\C/C=C\C/C=C\C/C=C\C/C=C\CCC(=O)OC[C@@H](COC(=O)CCC/C=C\C/C=C\C/C=C\C/C=C\CCCCC)OC(=O)CCCCC/C=C\C/C=C\C/C=C\C/C=C\C/C=C\CC` [TG 20:4_22:5_22:6] (ion (formula + adduct): [C67H100O6+NH4] 1+): the “TIMS collisional cross section” value (sample type: HeLa) is reported as 338.1 Å². Regarding `CCCCCCCCCCCCC/C=C/[C@@H](O)[C@H](CO[C@@H]1O[C@H](CO)[C@@H](O)C(O)C1O)NC(=O)CCCCCCCCCCCCCCCCCCCCCC` (stereo partly specified) [GlcCer d18:1_23:0@] (ion (formula + adduct): [C47H91NO8+H] 1+), the “TIMS collisional cross section” value is reported as 301.5 Å² (sample type: HeLa) and 301.2 Å² (sample type: Liver). Taken in the same sequence, the figures for `CCCC/C=C\CCCCCCCC(=O)OC[C@H](COC(=O)CCCCCCC/C=C\CCCCCC)OC(=O)CCCCCCC/C=C\CCCC` [TG 14:1_14:1_16:1] (ion (formula + adduct): [C47H84O6+NH4] 1+) were 294.6 Å² and 291.2 Å². For the compound `CCCCC/C=C\C/C=C\C/C=C\C/C=C\CCCC(=O)OC[C@@H](COC(=O)CCCCCCC/C=C\CCCCCCC)OC(=O)CCCCCCC/C=C\C/C=C\CCCCC` [TG 17:1_18:2_20:4] (ion (formula + adduct): [C58H98O6+NH4] 1+), where the note is “sample type: Liver”, the “TIMS collisional cross section” value is 322.8 Å². With `CCCCC/C=C\C/C=C\CCCCCCCC(=O)O[C@@H](CO)COC(=O)CCCCCCC/C=C\CCCCCCCC` [DG 18:1_18:2_0:0] (ion (formula + adduct): [C39H70O5+NH4] 1+), the “TIMS collisional cross section” value (sample type: HeLa) turned out to be 261.1 Å², the “TIMS collisional cross section” value (sample type: Liver) is on record as 261.3 Å² and the “TIMS collisional cross section” value (sample type: plasma) came out at 261.2 Å².

For the compound `CCCCC/C=C\C/C=C\C/C=C\C/C=C\CCCC(=O)O[C@@H](CO)COC(=O)CCCCCCCCCCCCCCC` [DG 16:0_20:4_0:0] (ion (formula + adduct): [C39H68O5+NH4] 1+), the “TIMS collisional cross section” value is reported as 263.4 Å² (sample type: HeLa), 263.8 Å² (sample type: Liver) and 263.6 Å² (sample type: plasma). For `CCCCC/C=C\C/C=C\C/C=C\CCCCC(=O)O[C@H](COC(=O)CCCCCCCCCCCCCC)COP(=O)([O-])OCC[N+](C)(C)C` [PC 15:0@_18:3] (ion (formula + adduct): [C41H76NO8P+H] 1+), for the setting “sample type: HeLa”, the “TIMS collisional cross section” value worked out at 279.7 Å². Same read-out and setting: the value for `CCCCCCCCCCCCCCCC(=O)OC[C@@H](COC(=O)CCCCCCCCCCCCCC)OC(=O)CCCCCCCCCCCCCC` [TG 15:0_15:0_16:0] (ion (formula + adduct): [C49H94O6+NH4] 1+) was 308 Å²; that for `CCCCCC/C=C\CCCCCCCC(=O)O[C@@H](CO)COC(=O)CCCCCCC/C=C\CCCCCCCCC` [DG 19:1_16:1_0:0] (ion (formula + adduct): [C38H70O5+NH4] 1+) was 261.1 Å². Consider `CCCCCCCCCCCCCCCCCCCCCC(=O)OC[C@@H](COC(=O)CCCCCCCCCCCCCCC)OC(=O)CCCCCCCCCCCCCCCCCCCC` [TG 16:0_21:0_22:0] (ion (formula + adduct): [C62H120O6+NH4] 1+), for which the “TIMS collisional cross section” value reads like this: (sample type: HeLa) 346.3 Å²; (sample type: plasma) 346 Å². `CC/C=C\C/C=C\C/C=C\C/C=C\C/C=C\C/C=C\CCC(=O)O[C@H](COCCCCCCCCCCCCCCCC)COP(=O)(O)OCCN` [PE O- 16:0@_22:6] (ion (formula + adduct): [C43H76NO7P+H] 1+): the “TIMS collisional cross section” value (sample type: HeLa) was determined as 279.6 Å². Turning to `CC/C=C\C/C=C\C/C=C\C/C=C\C/C=C\C/C=C\CCC(=O)O[C@H](COC(=O)CCC/C=C\C/C=C\C/C=C\C/C=C\CCCCC)COP(=O)(O)OCCN` [PE 20:4@_22:6] (ion (formula + adduct): [C47H74NO8P+H] 1+), the “TIMS collisional cross section” value (sample type: HeLa) is on record as 284.8 Å² and the “TIMS collisional cross section” value (sample type: Liver) came to 284.4 Å². In the case of `CC/C=C\C/C=C\C/C=C\C/C=C\C/C=C\C/C=C\CCC(=O)OC[C@@H](COC(=O)CCCCCCCCCCCCCCC)OC(=O)CCCCCC/C=C\C/C=C\C/C=C\CCCCC` [TG 16:0_20:3_22:6] (ion (formula + adduct): [C61H100O6+NH4] 1+), the “TIMS collisional cross section” value (sample type: HeLa) is reported as 329.4 Å² and the “TIMS collisional cross section” value (sample type: Liver) was 329.3 Å². Turning to `CC/C=C\C/C=C\C/C=C\C/C=C\C/C=C\CCCC(=O)O[C@H](COC(=O)CCCCCCCCC/C=C\CCCCCC)COP(=O)([O-])OCC[N+](C)(C)C` [PC 18:1@_20:5] (ion (formula + adduct): [C46H80NO8P+H] 1+), the “TIMS collisional cross section” value is, setting by setting: (sample type: HeLa) 290.2 Å²; (sample type: Liver) 290.9 Å². As to `CCCCCCCCCCCCCCCCCCCCOC[C@@H](O)COP(=O)([O-])OCC[N+](C)(C)C` [LPC O- 20:0] (ion (formula + adduct): [C28H60NO6P+H] 1+), under “sample type: plasma”, the “TIMS collisional cross section” value is given as 245.9 Å². Consider `CCCCC/C=C\C/C=C\C/C=C\C/C=C\CCCC(=O)OC[C@@H](COC(=O)CCCCCCCCCCCCCCC)OC(=O)CCCCCCCCCCCCCCCCCCC` [TG 16:0_20:0_20:4] (ion (formula + adduct): [C59H106O6+NH4] 1+), for which the “TIMS collisional cross section” value (sample type: Liver) was 332.3 Å². In the case of `CCCCCCCC/C=C\CCCCCCCC(=O)O[C@H](COC(=O)CCCCCCCCCCCCCCC)COP(=O)([O-])OCC[N+](C)(C)C` [PC 16:0_18:1] (ion (formula + adduct): [C42H82NO8P+H] 1+), the “TIMS collisional cross section” value reads like this: (sample type: HeLa) 288.37 ± 0.9 Å²; (sample type: plasma) 287.7 Å².

Take `CCCCC/C=C\C/C=C\CCCCCCCC(=O)OC[C@@H](COC(=O)CCCCCCCCCCCCCC)OC(=O)CCCCCCCCCCCCCCC` [TG 15:0_16:0_18:2] (ion (formula + adduct): [C52H96O6+NH4] 1+): under “sample type: Liver”, the “TIMS collisional cross section” value is given as 312.6 Å².

For `CCCCCCCCCCCCCCCCCCCCCC(=O)O[C@@H](CO)COC(=O)CCCCCCCCCCCCCCCCC` [DG 18:0_22:0_0:0] (ion (formula + adduct): [C43H84O5+NH4] 1+), the “TIMS collisional cross section” value (sample type: plasma) was found to be 285.7 Å². Consider `CCCCC/C=C\C/C=C\CCCCCCCC(=O)OC[C@@H](COC(=O)CCCCCCC/C=C\CCCCCC)OC(=O)CCCCCCC/C=C\C/C=C\CCCCC` [TG 16:1_18:2_18:2] (ion (formula + adduct): [C55H96O6+NH4] 1+), for which the “TIMS collisional cross section” value (sample type: Liver) was found to be 315.45 ± 0.49 Å². Turning to `CCCCCCCC/C=C\CCCCCCCCCCCC(=O)N[C@@H](COP(=O)([O-])OCC[N+](C)(C)C)[C@H](O)/C=C/CCCCCCCCCCC` [SM d16:1_22:1@] (ion (formula + adduct): [C43H85N2O6P+H] 1+), under “sample type: plasma”, the “TIMS collisional cross section” value was determined as 294.45 ± 0.21 Å². On to `CCCCC/C=C\C=C/CCCCCCCCC(=O)O[C@H](COC(=O)CCCCCCCCCCCCCCCCC)COP(=O)([O-])OCC[N+](C)(C)C` [PC 18:0@_18:2] (ion (formula + adduct): [C44H84NO8P+H] 1+), for which the “TIMS collisional cross section” value (sample type: plasma) came out at 292.6 Å².

In the case of `CCCCCCCC/C=C\CCCCCCCC(=O)OC[C@H](COP(=O)(O)OCCN)OC(=O)CCCCCCCCC/C=C\CCCCCCCCCC` [PE 18:1_22:1] (ion (formula + adduct): [C45H86NO8P+H] 1+), the “TIMS collisional cross section” value (sample type: HeLa) is on record as 292.4 Å².

For `CCCCCC/C=C\CCCCCCCC(=O)OC[C@H](COP(=O)(O)OCCN)OC(=O)CCCCCCC/C=C\CCCCCC` [PE 16:1_16:1] (ion (formula + adduct): [C37H70NO8P+Na] 1+), the “TIMS collisional cross section” value (sample type: HeLa) is 266.4 Å². With `CC/C=C\C/C=C\C/C=C\C/C=C\C/C=C\C/C=C\CCC(=O)OC[C@@H](COC(=O)CCCCCCC/C=C\CCCCCCCC)OC(=O)CCCCCCC/C=C\CCCCCCCC` [TG 18:1_18:1_22:6] (ion (formula + adduct): [C61H102O6+NH4] 1+), the “TIMS collisional cross section” value (sample type: HeLa) turned out to be 331.3 Å².

Regarding `CCCCC/C=C\CCCCCCCC(=O)OC[C@H](COC(=O)CCCCCCCCCCCCCCC)OC(=O)CCCCCCCCCCCCCCC` [TG 15:1_16:0_16:0] (ion (formula + adduct): [C50H94O6+NH4] 1+), the “TIMS collisional cross section” value (sample type: Liver) is 309.7 Å².

In the case of `CCCCC/C=C\C/C=C\C/C=C\C/C=C\CCCC(=O)OC[C@@H](COC(=O)CCCCCCCCCCCCCCC)OC(=O)CCCCCCC/C=C\CCCCCCC` [TG 16:0_17:1_20:4] (ion (formula + adduct): [C56H98O6+NH4] 1+), under “sample type: HeLa”, the “TIMS collisional cross section” value is on record as 321.4 Å².
